From US20110200992A1, “Biological Compositions, Articles and Methods for Monitoring Sterilization Processes” (priority 2008, published 2011)

Key:
Format in all cases: cell-based
[1] = test system: Gb. stearothermophilus spores; experiment: Fluorescence with live and dead (sterilized) spores, dye and nutrient medium treated with the same sterilizing conditions (Example 3)
Description: A glass vial containing 1 mL of 1×E7 Gb. stearothermophilus spore suspension described above and a glass vial containing 1 mL of medium containing a cell-permeant fluorescent dye as described in Example 1 were placed in a sterilizer and run in a 15 min 121° C. (250° F.) vacuum assisted cycle in a AMSCO Scientific SG-120 Eagle/Century Series steam sterilizer (Steris, Mentor Ohio), and 100 microlitres of the resulting autoclaved spore suspensions and medium were subsequently tested. Un-autoclaved spore suspensions that were subjected to a heat shock treatment at 80° C. for 10 min were tested simultaneously as a control. Spore suspensions (100 microlitres) were combined with 200 microlitres of medium, consisting of Acridine orange dye and nutrients as described in Example 1, that was run through the same steam sterilization cycle as the spores, and each resulting mixture was added to a well of a plate. The plate was subsequently placed in a preheated plate reader (Synergy 4, BioTek, Winooski, Vt.) at 50° C. and incubated for 180 min, during which fluorescence intensity readings using excitation and emission wavelengths of 520 and 580, respectively were taken for at total of 19 readings.

[2] = test system: Gb. stearothermophilus spores on a polypropylene carrier; experiment: Change in fluorescence of biological indicators after lethal and sub-lethal sterilization cycles (Example 4); details: 485/530 nm, 1×E5 spores, 1:5000 dye, incubated 50° C.
Description: Eighty biological indicators (BIs) were prepared by coating a suspension of Gb. stearothermophilus spores at a concentration of 1×E5 on a polypropylene carrier. Following drying at 37° C. for 20 min, the BIs were exposed to commonly used sterilization conditions as described below in Tables 4a, 4b, and 4c. Following sterilization the BIs were activated with a medium, exposed to the same sterilization conditions as the spores and containing of a 1:5000 dilution of Acridine Orange along with glucose, fructose, and potassium chloride in water (1 mg/ml, 1 mg/ml, and 3.3 mgs/ml, respectively), 0.02 M alanine, 0.01 M valine, 0.002 M isoleucine, 0.2 mg/ml inosine, and a small amount of Bromo Cresol Purple. The combination of the medium with the spores on the carrier, subjected to lethal and sub-lethal sterilization processes shown in Tables 4a-4c, was incubated at 50° C. for 60 min, and fluorescence intensity readings were taken at 30 and 60 min using excitation at 485 nm and emission at 530 nm.

[3] = test system: Gb. stearothermophilus spores; experiment: Fluorescence with spores after dye medium was exposed to sterilization temperature, autoclaved vs not autoclaved (Example 2); details: ex 485/em 530 nm, 50° C.
Description: Dilutions of a Gb. stearothermophilus spore suspension described above were subjected to heat shock treatment at 80° C. for 10 min. The dilutions were prepared using Sterile Water For Irrigation (Baxter, Deerfield, Ill.) and tested at a final population of 1×10^6 and 0 spores. The spore dilutions (100 microlitres) were combined with 200 microlitres of medium, consisting of Acridine Orange and nutrients as described in Example 1, that had been subjected to a 15 min 121° C. (250° F.) vacuum assisted cycle in a AMSCO Scientific SG-120 Eagle/Century Series steam sterilizer (Steris, Mentor Ohio), and each of the resulting mixtures was added to a well of a plate. Un-autoclaved medium was used as a control. […] The experiment was performed with both heat shocked and non-heat shocked spores. A summary of the normalized data is listed below in Tables 2a-2c.

[4] = 1 min in 132° C. (270° F.) Gravity Cycle, AMSCO EAGLE Model 2013 Steam Sterilizer
[5] = 1 min in 132° C. (270° F.) Vacuum Assisted Cycle, Joslyn BIER Vessel
[6] = 3 min in 132° C. (270° F.) Gravity Cycle, AMSCO EAGLE Model 2013 Steam Sterilizer
[7] = 3 min in 132° C. (270° F.) Vacuum Assisted Cycle, Joslyn BIER Vessel
[8] = 5 min in 121° C. (250° F.) Vacuum Assisted Cycle, Joslyn BIER Vessel
[9] = 15 min in 121° C. (250° F.) Vacuum Assisted Cycle, Joslyn BIER Vessel

SMILES: CN(C)c1ccc2cc3ccc(N(C)C)cc3nc2c1 [Acridine Orange]
- Fluorescence intensity (normalized) ([1]; Autoclaved (dead) Spores, E6, ex 520/em 580, 50° C., 0 min): 0
- Fluorescence intensity (normalized) ([1]; Autoclaved (dead) Spores, E6, ex 520/em 580, 50° C., 30 min): −1468.25
- Fluorescence intensity (normalized) ([1]; Autoclaved (dead) Spores, E6, ex 520/em 580, 50° C., 60 min): −103.5
- Fluorescence intensity (normalized) ([1]; Autoclaved (dead) Spores, E6, ex 520/em 580, 50° C., 90 min): −9.25
- Fluorescence intensity (normalized) ([1]; Autoclaved (dead) Spores, E6, ex 520/em 580, 50° C., 120 min): −49.25
- Fluorescence intensity (normalized) ([1]; Autoclaved (dead) Spores, E6, ex 520/em 580, 50° C., 180 min): −307
- Fluorescence intensity (normalized) ([1]; Autoclaved Spores, 0, ex 520/em 580, 50° C., 0 min): 0
- Fluorescence intensity (normalized) ([1]; Autoclaved Spores, 0, ex 520/em 580, 50° C., 30 min): 375.25
- Fluorescence intensity (normalized) ([1]; Autoclaved Spores, 0, ex 520/em 580, 50° C., 60 min): 1347.25
- Fluorescence intensity (normalized) ([1]; Autoclaved Spores, 0, ex 520/em 580, 50° C., 90 min): 1533.75
- Fluorescence intensity (normalized) ([1]; Autoclaved Spores, 0, ex 520/em 580, 50° C., 120 min): 1491.25
- Fluorescence intensity (normalized) ([1]; Autoclaved Spores, 0, ex 520/em 580, 50° C., 180 min): 1427.75
- Fluorescence intensity (normalized) ([1]; Live Spores (heat shocked), E6, autoclaved dye + nutrient medium, ex 520/em 580, 50° C., 0 min): 0
- Fluorescence intensity (normalized) ([1]; Live Spores (heat shocked), E6, autoclaved dye + nutrient medium, ex 520/em 580, 50° C., 30 min): 6211.5
- Fluorescence intensity (normalized) ([1]; Live Spores (heat shocked), E6, autoclaved dye + nutrient medium, ex 520/em 580, 50° C., 60 min): 8652.5
- Fluorescence intensity (normalized) ([1]; Live Spores (heat shocked), E6, autoclaved dye + nutrient medium, ex 520/em 580, 50° C., 90 min): 9955.5
- Fluorescence intensity (normalized) ([1]; Live Spores (heat shocked), E6, autoclaved dye + nutrient medium, ex 520/em 580, 50° C., 120 min): 10376.5
- Fluorescence intensity (normalized) ([1]; Live Spores (heat shocked), E6, autoclaved dye + nutrient medium, ex 520/em 580, 50° C., 180 min): 10694.25
- Fluorescence intensity (normalized) ([1]; Live Spores, 0, autoclaved dye + nutrient medium, ex 520/em 580, 50° C., 0 min): 0
- Fluorescence intensity (normalized) ([1]; Live Spores, 0, autoclaved dye + nutrient medium, ex 520/em 580, 50° C., 30 min): 522.25
- Fluorescence intensity (normalized) ([1]; Live Spores, 0, autoclaved dye + nutrient medium, ex 520/em 580, 50° C., 60 min): 588.75
- Fluorescence intensity (normalized) ([1]; Live Spores, 0, autoclaved dye + nutrient medium, ex 520/em 580, 50° C., 90 min): 779.75
- Fluorescence intensity (normalized) ([1]; Live Spores, 0, autoclaved dye + nutrient medium, ex 520/em 580, 50° C., 120 min): 870
- Fluorescence intensity (normalized) ([1]; Live Spores, 0, autoclaved dye + nutrient medium, ex 520/em 580, 50° C., 180 min): 886.5
- Average Change in Fluorescence at 30 min [2, 4]: 1462
- Average Change in Fluorescence at 60 min [2, 4]: 1808
- Average Change in Fluorescence at 30 min [2, 5]: 2607
- Average Change in Fluorescence at 60 min [2, 5]: 2762
- Average Change in Fluorescence at 30 min [2, 6]: 201
- Average Change in Fluorescence at 60 min [2, 6]: 22
- Average Change in Fluorescence at 30 min [2, 7]: 279
- Average Change in Fluorescence at 60 min [2, 7]: 386
- Average Change in Fluorescence at 30 min [2, 8]: 2774
- Average Change in Fluorescence at 60 min [2, 8]: 3347
- Average Change in Fluorescence at 30 min [2, 9]: 383
- Average Change in Fluorescence at 60 min [2, 9]: 353
- Fluorescence intensity (normalized) ([3]; Autoclaved (15 min 121° C.) dye + nutrient medium, heat shocked E6 germinating spores, 0 min): 0
- Fluorescence intensity (normalized) ([3]; Autoclaved (15 min 121° C.) dye + nutrient medium, heat shocked E6 germinating spores, 30 min): 6211.5
- Fluorescence intensity (normalized) ([3]; Autoclaved (15 min 121° C.) dye + nutrient medium, heat shocked E6 germinating spores, 60 min): 8652.5
- Fluorescence intensity (normalized) ([3]; Autoclaved (15 min 121° C.) dye + nutrient medium, heat shocked E6 germinating spores, 90 min): 9955.5
- Fluorescence intensity (normalized) ([3]; Autoclaved (15 min 121° C.) dye + nutrient medium, heat shocked E6 germinating spores, 120 min): 10376.5
- Fluorescence intensity (normalized) ([3]; Autoclaved (15 min 121° C.) dye + nutrient medium, heat shocked E6 germinating spores, 150 min): 10694.25
- Fluorescence intensity (normalized) ([3]; Autoclaved (15 min 121° C.) dye + nutrient medium, heat shocked E6 germinating spores, 180 min): 10803
- Fluorescence intensity (normalized) ([3]; Autoclaved (15 min 121° C.) dye + nutrient medium, heat shocked, 0 spores, 0 min): 0
- Fluorescence intensity (normalized) ([3]; Autoclaved (15 min 121° C.) dye + nutrient medium, heat shocked, 0 spores, 30 min): 522.25
- Fluorescence intensity (normalized) ([3]; Autoclaved (15 min 121° C.) dye + nutrient medium, heat shocked, 0 spores, 60 min): 588.75
- Fluorescence intensity (normalized) ([3]; Autoclaved (15 min 121° C.) dye + nutrient medium, heat shocked, 0 spores, 90 min): 779.75
- Fluorescence intensity (normalized) ([3]; Autoclaved (15 min 121° C.) dye + nutrient medium, heat shocked, 0 spores, 120 min): 870
- Fluorescence intensity (normalized) ([3]; Autoclaved (15 min 121° C.) dye + nutrient medium, heat shocked, 0 spores, 150 min): 886.5
- Fluorescence intensity (normalized) ([3]; Autoclaved (15 min 121° C.) dye + nutrient medium, heat shocked, 0 spores, 180 min): 960.5
- Fluorescence intensity (normalized) ([3]; Autoclaved (15 min 121° C.) dye + nutrient medium, non-heat shocked E6 germinating spores, 0 min): 0
- Fluorescence intensity (normalized) ([3]; Autoclaved (15 min 121° C.) dye + nutrient medium, non-heat shocked E6 germinating spores, 14 min): 609
- Fluorescence intensity (normalized) ([3]; Autoclaved (15 min 121° C.) dye + nutrient medium, non-heat shocked E6 germinating spores, 30 min): 2599
- Fluorescence intensity (normalized) ([3]; Autoclaved (15 min 121° C.) dye + nutrient medium, non-heat shocked E6 germinating spores, 44 min): 4753
- Fluorescence intensity (normalized) ([3]; Autoclaved (15 min 121° C.) dye + nutrient medium, non-heat shocked E6 germinating spores, 58 min): 6508
- Fluorescence intensity (normalized) ([3]; Autoclaved (15 min 121° C.) dye + nutrient medium, non-heat shocked, 0 spores, 0 min): 0
- Fluorescence intensity (normalized) ([3]; Autoclaved (15 min 121° C.) dye + nutrient medium, non-heat shocked, 0 spores, 14 min): −212
- Fluorescence intensity (normalized) ([3]; Autoclaved (15 min 121° C.) dye + nutrient medium, non-heat shocked, 0 spores, 30 min): −263
- Fluorescence intensity (normalized) ([3]; Autoclaved (15 min 121° C.) dye + nutrient medium, non-heat shocked, 0 spores, 44 min): −278
- Fluorescence intensity (normalized) ([3]; Autoclaved (15 min 121° C.) dye + nutrient medium, non-heat shocked, 0 spores, 58 min): −287
- Fluorescence intensity (normalized) ([3]; Not autoclaved dye + nutrient medium, heat shocked E6 germinating spores, 0 min): 0
- Fluorescence intensity (normalized) ([3]; Not autoclaved dye + nutrient medium, heat shocked E6 germinating spores, 30 min): 11623.75
- Fluorescence intensity (normalized) ([3]; Not autoclaved dye + nutrient medium, heat shocked E6 germinating spores, 60 min): 17121.25
- Fluorescence intensity (normalized) ([3]; Not autoclaved dye + nutrient medium, heat shocked E6 germinating spores, 90 min): 18928.25
- Fluorescence intensity (normalized) ([3]; Not autoclaved dye + nutrient medium, heat shocked E6 germinating spores, 120 min): 19653.75
- Fluorescence intensity (normalized) ([3]; Not autoclaved dye + nutrient medium, heat shocked E6 germinating spores, 150 min): 19884.5
- Fluorescence intensity (normalized) ([3]; Not autoclaved dye + nutrient medium, heat shocked E6 germinating spores, 180 min): 20008.25
- Fluorescence intensity (normalized) ([3]; Not autoclaved dye + nutrient medium, heat shocked, 0 spores, 0 min): 0
- Fluorescence intensity (normalized) ([3]; Not autoclaved dye + nutrient medium, heat shocked, 0 spores, 30 min): 813
- Fluorescence intensity (normalized) ([3]; Not autoclaved dye + nutrient medium, heat shocked, 0 spores, 60 min): 875.75
- Fluorescence intensity (normalized) ([3]; Not autoclaved dye + nutrient medium, heat shocked, 0 spores, 90 min): 996.25
- Fluorescence intensity (normalized) ([3]; Not autoclaved dye + nutrient medium, heat shocked, 0 spores, 120 min): 1099
- Fluorescence intensity (normalized) ([3]; Not autoclaved dye + nutrient medium, heat shocked, 0 spores, 150 min): 1114.5
- Fluorescence intensity (normalized) ([3]; Not autoclaved dye + nutrient medium, heat shocked, 0 spores, 180 min): 990.25
- Fluorescence intensity (normalized) ([3]; Not autoclaved dye + nutrient medium, non-heat shocked E6 germinating spores, 0 min): 00
- Fluorescence intensity (normalized) ([3]; Not autoclaved dye + nutrient medium, non-heat shocked E6 germinating spores, 14 min): 597
- Fluorescence intensity (normalized) ([3]; Not autoclaved dye + nutrient medium, non-heat shocked E6 germinating spores, 30 min): 2878
- Fluorescence intensity (normalized) ([3]; Not autoclaved dye + nutrient medium, non-heat shocked E6 germinating spores, 44 min): 5314
- Fluorescence intensity (normalized) ([3]; Not autoclaved dye + nutrient medium, non-heat shocked E6 germinating spores, 58 min): 7289
- Fluorescence intensity (normalized) ([3]; Not autoclaved dye + nutrient medium, non-heat shocked, 0 spores, 0 min): 0
- Fluorescence intensity (normalized) ([3]; Not autoclaved dye + nutrient medium, non-heat shocked, 0 spores, 14 min): −334
- Fluorescence intensity (normalized) ([3]; Not autoclaved dye + nutrient medium, non-heat shocked, 0 spores, 30 min): −456
- Fluorescence intensity (normalized) ([3]; Not autoclaved dye + nutrient medium, non-heat shocked, 0 spores, 44 min): −484
- Fluorescence intensity (normalized) ([3]; Not autoclaved dye + nutrient medium, non-heat shocked, 0 spores, 58 min): −476
